Data taken from US7262170B2, “Pharmaceutical composition for reducing vaginal acidity and treatment of vaginitis, and the use thereof” (priority 1998, dated 2007).

How the values were obtained:
[1] = tested on: Candida albicans; test: Growth of Candida albicans in broths with or without Fluconazole, Gram-stained smears of cultured broths; type: cell-based; conditions: 48 hours incubation, Fluconazole 0.005% in experiment tubes
Description: Broths: Four sterilized broths were prepared separately according to following formula: • A. Sucrose 0.25%, yeast extract powder 0.15%, glutamic acid 0.4%, aspartic acid 0.4%, isoleucine 0.4%, proline 0.4%, phenylalanine 0.4%, Fluconazole, 0.005%, distilled water, pH adjusted to 6.5 • B. Sucrose 0.25%, yeast extract powder 0.15%, glutamic acid 0.08%, aspartic acid 0.08%, isoleucine 0.08%, proline 0.08%, phenylalanine 0.08%, Fluconazole, 0.005%, distilled water, pH adjusted to 6.5 • C. Control-A broth: Sucrose 0.25%, yeast extract powder 0.15%, glutamic acid 0.4%, aspartic acid 0.4%, isoleucine 0.4%, proline 0.4%, phenylalanine 0.4%, distilled water, pH adjusted to 6.5 • D. Control-B broth: Sucrose 0.25%, yeast extract powder 0.15%, glutamic acid 0.08%, aspartic acid 0.08%, isoleucine 0.08%, proline 0.08%, phenylalanine 0.08%, distilled water, pH adjusted to 6.5 Lactobacillus suspensions: Two lactobacillus suspensions were prepared separately from each of the clinical isolated L. acidophilus and L. crispatus strains. Candida suspension: One Candida suspension was prepared from a clinically isolated Candida albicans strain. Grouping: two groups of tubes were divided and each group had four tubes, two experimental tubes and two control tubes. Group A contained 3 ml of A-broth and Group B contained 3 ml of B-broth. […]

[2] = tested on: fungal vaginitis; conditions: anti-fungal drug alone; cited from earlier work

Row | Molecule | growth of Candida albicans / yeast-like organisms in cultured broths [1] | curative rate [2]
1 | OC(Cn1cncn1)(Cn1cncn1)c1ccc(F)cc1F [Fluconazole] | inhibited | 
2 | Mikostatin |  | 75-80%
